Laboratory results from ChEMBL document CHEMBL1201862, “PubChem BioAssay data set” (2004).
The source made the active and inactive calls. Rule as the data show it, for most assays here: actives have a measured EC50 and inactives only a lower limit.

Experiments:
[1] = biological target: T1, RNA-binding protein pos-1 (Caenorhabditis elegans, UniProt G5EF15); test: inhibitors of POS-1/mex-3 RNA binding, dose response, biochemical, fluorescence polarization (AID 1964);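 also: purified POS-1 fused to maltose binding protein made in E. coli; potency of compounds blocking POS-1 binding to fluorescent RNA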
T1 sequence (G5EF15 whole entry): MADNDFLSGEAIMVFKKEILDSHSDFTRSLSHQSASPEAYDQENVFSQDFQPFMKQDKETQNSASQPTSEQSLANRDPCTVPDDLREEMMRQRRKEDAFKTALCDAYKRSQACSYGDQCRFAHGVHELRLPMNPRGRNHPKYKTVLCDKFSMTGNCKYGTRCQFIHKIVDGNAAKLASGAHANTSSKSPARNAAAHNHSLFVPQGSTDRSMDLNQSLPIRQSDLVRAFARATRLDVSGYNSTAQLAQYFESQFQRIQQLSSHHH

[2] = biological target: T2, Zinc finger protein mex-5 (Caenorhabditis elegans, UniProt Q9XUB2); test: MEX-5/TCR-2 RNA interaction inhibitors, dose response, biochemical, C. elegans, fluorescence polarization (AID 1960)
T2 sequence (Q9XUB2 whole entry): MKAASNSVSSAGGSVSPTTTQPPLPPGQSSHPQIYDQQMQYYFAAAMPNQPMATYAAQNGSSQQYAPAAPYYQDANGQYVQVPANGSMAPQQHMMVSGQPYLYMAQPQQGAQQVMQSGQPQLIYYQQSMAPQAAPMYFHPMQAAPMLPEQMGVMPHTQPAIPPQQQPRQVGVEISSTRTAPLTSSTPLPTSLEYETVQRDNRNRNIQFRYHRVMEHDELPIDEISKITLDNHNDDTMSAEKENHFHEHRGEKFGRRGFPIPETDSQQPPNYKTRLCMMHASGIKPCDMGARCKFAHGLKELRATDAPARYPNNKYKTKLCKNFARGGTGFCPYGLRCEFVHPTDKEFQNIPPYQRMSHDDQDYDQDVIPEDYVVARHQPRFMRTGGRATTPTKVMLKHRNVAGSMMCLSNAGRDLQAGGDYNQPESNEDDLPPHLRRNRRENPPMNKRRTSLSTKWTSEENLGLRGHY

[3] = Luminescence Cell-Based Dose Response HTS to Identify Activators of Luciferase Translation or Activity in H4 […] Cells. [Related pubchem assays: 1829 (Project Summary), 1814 (Primary HTS)]; format: functional
[4] = Luminescence Cell-Based Dose Confirmation HTS to Identify Activators of 5'UTR Stem-Loop Driven Alpha-Synuclein mRNA Translation in H4 Neuroglioblastoma Cells. [Related pubchem assays: 1829 (Project Summary), 1814 (Primary HTS)]; format: functional
H4 = test: Luminescence Cell-Based Dose Response HTS to Identify Activators of 5'UTR Stem-Loop Driven Prion Protein mRNA Translation in H4 Neuroglioblastoma Cells. [Related pubchem assays: 1829 (Project Summary), 1814 (Primary HTS)]; format: functional; conditions: Homo sapiens
Protein RecA = biological target: T3, Protein RecA (Mycobacterium tuberculosis, UniProt P9WHJ3); test: Fluorescence Cell-Free Homogeneous Dose Retest to Identify Inhibitors of RecA-Intein Splicing Activity. [Related pubchem assays (depositor defined):AID2097, AID2223, AID489010, AID492950]; format: functional
T3 sequence (P9WHJ3 whole entry): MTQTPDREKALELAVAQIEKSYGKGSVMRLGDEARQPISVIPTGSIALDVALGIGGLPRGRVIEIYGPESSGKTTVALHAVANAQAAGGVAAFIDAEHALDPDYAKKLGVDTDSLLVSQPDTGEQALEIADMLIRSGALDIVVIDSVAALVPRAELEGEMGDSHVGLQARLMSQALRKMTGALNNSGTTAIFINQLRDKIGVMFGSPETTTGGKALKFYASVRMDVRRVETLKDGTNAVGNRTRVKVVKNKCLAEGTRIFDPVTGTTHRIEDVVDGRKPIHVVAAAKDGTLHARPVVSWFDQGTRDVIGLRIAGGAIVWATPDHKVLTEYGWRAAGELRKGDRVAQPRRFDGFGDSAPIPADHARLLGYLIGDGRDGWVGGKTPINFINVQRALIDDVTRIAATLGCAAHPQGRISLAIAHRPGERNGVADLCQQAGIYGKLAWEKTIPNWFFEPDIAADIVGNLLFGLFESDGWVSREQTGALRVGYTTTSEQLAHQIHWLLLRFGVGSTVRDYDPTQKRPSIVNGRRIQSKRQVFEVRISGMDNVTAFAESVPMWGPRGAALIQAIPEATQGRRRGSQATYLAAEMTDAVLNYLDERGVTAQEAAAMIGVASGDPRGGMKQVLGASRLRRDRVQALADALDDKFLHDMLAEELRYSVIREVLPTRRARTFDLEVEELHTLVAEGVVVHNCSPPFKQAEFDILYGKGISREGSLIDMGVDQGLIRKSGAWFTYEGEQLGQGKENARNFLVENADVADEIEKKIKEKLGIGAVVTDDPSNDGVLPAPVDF

[5] = biological target: T4, Replicative DNA helicase DnaB (Mycobacterium tuberculosis, UniProt P9WMR3); test: DnaB intein splicing inhibitors, dose response, biochemical, cell-free fluorescence (AID 449749); format: functional
T4 sequence (P9WMR3 whole entry): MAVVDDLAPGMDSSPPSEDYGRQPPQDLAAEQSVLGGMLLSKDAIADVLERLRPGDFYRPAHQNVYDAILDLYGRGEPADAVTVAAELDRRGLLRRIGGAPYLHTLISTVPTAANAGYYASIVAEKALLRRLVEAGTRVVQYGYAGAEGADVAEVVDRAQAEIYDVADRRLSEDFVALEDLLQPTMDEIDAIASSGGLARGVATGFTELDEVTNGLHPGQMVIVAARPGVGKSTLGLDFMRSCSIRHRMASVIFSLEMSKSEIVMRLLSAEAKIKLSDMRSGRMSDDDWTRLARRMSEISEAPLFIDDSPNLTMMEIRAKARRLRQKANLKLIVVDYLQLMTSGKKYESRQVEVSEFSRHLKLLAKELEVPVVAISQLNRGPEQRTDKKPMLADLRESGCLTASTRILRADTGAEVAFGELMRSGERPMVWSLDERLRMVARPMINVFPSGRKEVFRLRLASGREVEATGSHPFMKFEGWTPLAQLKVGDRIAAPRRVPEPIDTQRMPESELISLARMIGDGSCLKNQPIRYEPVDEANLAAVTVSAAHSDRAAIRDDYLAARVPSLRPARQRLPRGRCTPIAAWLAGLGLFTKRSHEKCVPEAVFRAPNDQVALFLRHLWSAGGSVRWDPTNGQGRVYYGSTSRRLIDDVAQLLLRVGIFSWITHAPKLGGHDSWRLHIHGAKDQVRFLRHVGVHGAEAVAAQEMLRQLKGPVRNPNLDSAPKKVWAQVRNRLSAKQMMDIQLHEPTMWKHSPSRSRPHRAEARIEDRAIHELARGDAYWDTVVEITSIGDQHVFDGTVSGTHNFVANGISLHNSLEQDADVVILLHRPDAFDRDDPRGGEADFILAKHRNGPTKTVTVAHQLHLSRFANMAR

Genome polyprotein = Genome polyprotein (dengue virus type 2, UniProt P29990); test: Dengue-2 NS5 methyltransferase inhibitors, primary screen, biochemical, confirmation dose response (AID 588689); format: functional
[6] = biological target: FAD-linked sulfhydryl oxidase ALR (Homo sapiens, UniProt P55789); test: inhibitors of human ALR sulfhydryl oxidase, dose response, biochemical, H2O2 detection, luminescence, cherry-pick (AID 493248)
[7] = NIH-3T3 fibroblast cytotoxicity, dose response, cytotoxicity control, cell-based, fluorescence, Alamar Blue, secondary assay (AID 2327); format: functional;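 also: NIH-3T3 mouse fibroblasts cultured with fluconazole at 8 µg/mL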
[8] = HEp-2 cell cytotoxicity, dose response, cytotoxicity control for RSV inhibitor project, HTS (AID 2410); format: functional; conditions: human respiratory syncytial virus
[9] = C. albicans growth with fluconazole, confirmation, fluorescence, retest (AID 2467); format: functional, cell-based

Sequence of Genome polyprotein (P29990 2492-3391 limits assumed): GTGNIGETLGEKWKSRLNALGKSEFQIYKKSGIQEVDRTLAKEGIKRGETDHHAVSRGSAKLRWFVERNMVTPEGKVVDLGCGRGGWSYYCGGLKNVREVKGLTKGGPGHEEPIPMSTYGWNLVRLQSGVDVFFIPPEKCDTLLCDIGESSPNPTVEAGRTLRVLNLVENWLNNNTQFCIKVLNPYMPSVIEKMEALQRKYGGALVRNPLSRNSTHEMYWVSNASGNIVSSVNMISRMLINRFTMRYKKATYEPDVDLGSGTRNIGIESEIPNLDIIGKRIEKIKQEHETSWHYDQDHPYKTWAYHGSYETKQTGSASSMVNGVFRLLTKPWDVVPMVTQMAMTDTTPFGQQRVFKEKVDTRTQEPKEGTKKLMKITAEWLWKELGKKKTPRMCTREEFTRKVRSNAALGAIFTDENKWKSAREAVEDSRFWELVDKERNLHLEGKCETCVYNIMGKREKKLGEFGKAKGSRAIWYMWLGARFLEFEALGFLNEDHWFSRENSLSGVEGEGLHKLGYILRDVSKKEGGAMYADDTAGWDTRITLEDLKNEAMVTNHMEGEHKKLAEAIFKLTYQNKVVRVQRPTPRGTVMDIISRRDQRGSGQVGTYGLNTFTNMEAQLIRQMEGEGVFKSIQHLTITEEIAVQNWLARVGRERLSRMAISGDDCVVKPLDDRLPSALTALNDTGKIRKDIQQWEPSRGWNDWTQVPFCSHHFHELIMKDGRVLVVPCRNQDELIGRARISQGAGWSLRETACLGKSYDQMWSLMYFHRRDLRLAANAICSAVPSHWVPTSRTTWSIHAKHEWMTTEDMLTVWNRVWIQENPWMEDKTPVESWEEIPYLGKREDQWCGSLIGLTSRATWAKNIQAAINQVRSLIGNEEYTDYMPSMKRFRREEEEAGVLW
Sequence of FAD-linked sulfhydryl oxidase ALR (P55789 whole entry): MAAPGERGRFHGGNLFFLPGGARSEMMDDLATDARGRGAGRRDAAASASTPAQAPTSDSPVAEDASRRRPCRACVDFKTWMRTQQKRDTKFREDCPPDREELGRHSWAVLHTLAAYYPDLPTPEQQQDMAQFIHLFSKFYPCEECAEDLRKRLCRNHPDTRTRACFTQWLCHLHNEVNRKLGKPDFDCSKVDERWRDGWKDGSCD

Row | Structure (SMILES) | EC50 [1] | EC50 [2] | EC50 [3] | EC50 [4] | EC50 (H4) | further results
1 | CC1(OC(=O)c2cccs2)C(=O)C=C2C=C3CCCN3C=C2C1=O (stereo not drawn) | > 300 µM (not active) | 35.4 µM (active) | – | – | – | –
2 | CCOC(=O)C1CCN(C(=O)CCC(=O)NNc2nc3ccccc3c3nc(C)nn23)CC1 | 53.9 µM (active) | 1.41 µM (active) | – | – | – | –
3 | CC1(C)CC(=O)c2sc(NC(=O)C3COc4ccccc4O3)nc2C1 (stereo not drawn) | – | – | 15.9 µM (active) | > 120 µM (not active) | > 120 µM (not active) | –
4 | CN1C(=O)C2(Oc3ccccc3C3CC(c4ccccc4)=NN32)c2ccccc21 (stereo not drawn) | – | – | 31.6 µM (active) | 11.8 µM (active) | 14.6 µM (active) | –
5 | Cc1cc(CNC(=O)c2cccc(OC3CCN(S(=O)(=O)N(C)C)CC3)c2)on1 | – | – | 10.8 µM (active) | 8.49 µM (active) | > 120 µM (not active) | –
6 | Cc1ccc(NC(=O)CSc2nnc(N)s2)cc1S(=O)(=O)N1CCOCC1 | > 300 µM (not active) | > 300 µM (not active) | – | – | – | –
7 | COc1cc(C(c2c(C)[nH][nH]c2=O)c2c(C)[nH][nH]c2=O)cc([N+](=O)[O-])c1O | 7.63 µM (active) | 4.74 µM (active) | – | – | – | EC50 (Protein RecA): 0.248 µM (active); AC50 [5]: 0.42 µM (active)
8 | O=C1NN(c2ccc(Cl)c(Cl)c2)C(=O)/C1=C/c1ccc(-c2ccccc2C(=O)O)o1 | – | – | – | – | – | IC50 (Genome polyprotein): 7.41 µM (active); AC50 [6]: 0.26 µM (active); EC50 [7]: > 160 µM (inactive)
9 | N=c1c(S(=O)(=O)c2ccc(Br)cc2)cc2c(=O)n3ccccc3nc2n1C1CCCCC1 | 9.42 µM (inconclusive) | 8.8 µM (active) | – | – | – | –
10 | N#Cc1c(-c2ccccc2)c(-c2ccccc2)nn(CC(=O)NNC(=O)Nc2ccccc2)c1=O | – | – | 15.2 µM (active) | > 120 µM (not active) | > 120 µM (not active) | –
11 | Cc1cccc(N2C(=O)C3C(c4ccccc4)OC4(C(=O)c5ccccc5C4=O)C3C2=O)c1 (stereo not drawn) | – | – | > 120 µM (not active) | > 120 µM (not active) | > 120 µM (not active) | –
12 | COC(=O)N/N=C/c1ccc(-c2cc(Cl)cc(Cl)c2)o1 | – | – | – | – | – | CC50 [8]: > 50 µM (active); EC50 [7]: > 150 µM (inactive); EC50 [9]: 5.04 µM (active)
13 | COc1ccc(N2C(=O)CC(N(CCc3ccccc3)C(=O)/C=C/C(=O)O)C2=O)cc1 (stereo not drawn) | – | – | – | – | – | EC50 (Protein RecA): > 380 µM (inactive); AC50 [5]: > 380 µM (inactive)
14 | O=S(=O)(O)c1cccc2cccc(Nc3ccccc3)c12 | – | – | – | – | – | IC50 (Genome polyprotein): > 100 µM (active)
15 | O=C(c1ccco1)N1CCN(c2ncnc3c(-c4ccccc4)nsc23)CC1 | – | – | – | – | – | EC50 [7]: 108 µM (active); EC50 [9]: 9.83 µM (active)
